The text below walks through data of publication PMC6018403 (Frontiers in Pharmacology, 2018).

Read-outs that look alike come from different tables or passages of the source.

The data set can be described thus: Multi-component pharmacokinetic study of GQD, GQD-GC and single herb extracts in rats (plasma, LC/MS/MS). The format is in vivo, Sprague-Dawley rats. The method, then: Male Sprague-Dawley rats (220–250 g) were used for PK study, and the details were described in Supplemental Data. All procedures were in accordance with the National Institutes of Health Guide for the Care and Use of Laboratory Animals.
For PK study of GQD and its component herbs, rats were randomly divided into six groups (n = 10 for each group) before oral administration.
All blood samples were immediately centrifuged at 6,000 rpm (4°C) for 20 min to obtain plasma. The plasma samples were stored at −80°C.
A Finnigan TSQ Quantum triple quadrupole mass spectrometer was connected to a Surveyor HPLC via ESI interface (ThermoFisher). High purity nitrogen was used as the sheath and auxiliary gas; Ultra-high purity argon was used as the collision gas (1.5 mTorr). Q1 and Q3 quadrupoles were set at unit resolution. […] The column temperature was 40°C. The mobile phase consisted of acetonitrile containing 2% (v/v) methanol (A) and water containing 0.1% (v/v) formic acid (B). […] An aliquot of 5 μL was injected for analysis. UV spectra were obtained by scanning from 200 to 400 nm. The mass spectrometer was operated in the (+)-ESI mode. The optimized parameters were as follows: sheath gas (N2), 50 arb; auxiliary gas (N2), 5 arb; spray voltage, 4.0 kV; capillary temperature, 330°C; collision energy, see Table S1. Analytes were detected in the selected reaction monitoring (SRM) mode. Data were processed by Xcalibur 2.0.7 software (ThermoFisher).
LC/MS/MS calibration and quantitation data were processed with Xcalibur 2.0.7 software (ThermoFisher). The maximal plasma concentrations (Cmax) and their time of occurrence (Tmax) were obtained directly from the measured data. Other pharmacokinetic parameters were calculated by non-compartment or compartment models using WinNonlin® software (v6.1, Pharsight). Unless otherwise stated, results were expressed as the mean ± SD. Statistical significance in differences of the means was determined by Student's t–test, with a significance level of P < 0.05.
Herbal materials and extracts.
The four component herbs, Puerariae Lobatae Radix (Ge-Gen, GG), Scutellariae Radix (Huang-Qin, HQ), Coptidis Rhizoma (Huang-Lian, HL), and Glycyrrhizae Radix et Rhizoma Praeparata cum Melle (Gan-Cao, GC) were purchased from Tianheng Pharmacy. GQD was prepared by decocting the four component herbs […]
pre-extraction of Ge-Gen using 200 mL of water for 0.5 h. The decoctions were combined, filtered, and concentrated in vacuum at 50 °C. GQD-GC was prepared using the same procedure, except that Gan-Cao was removed from the formula. Final concentration of the GQD-GC extract was equivalent to 1.0 g of the crude drugs per mL. For single herb extracts, the herbs were decocted in 8-fold volume of water for […]
Final concentrations of the extracts were 1.0 g/mL for Ge-Gen, and 0.5 g/mL for Huang-Qin, Huang-Lian and […]
For pharmacokinetic study, Male Sprague-Dawley rats (220-250 g) were obtained from the Laboratory Animal Center of Peking University Health Science Center. The […]
The rats had free access to tap water and soy-free custom diet (Ke’ao Xieli Co.). All procedures were in accordance with the National Institutes of Health Guide for the Care and Use of Laboratory Animals […]
Experimental details for the PK study
1. Preparation of internal standard solution, calibration standard solutions, and quality control solutions […]
internal standard solution. Reference standard compounds were dissolved in the internal standard solution to prepare individual stock solutions (1.0 mg/mL). These […]
each compound. The standard solution was then serially diluted to obtain calibration […]
Quality control stock solutions were prepared at three concentration levels as high QC (HQC), middle QC (MQC), and low QC (LQC), based on linear ranges of the analytes.
2.1. Sample preparation for pharmacokinetic study
The calibration standard and quality control solutions for pharmacokinetic study were […]

Where [1] appears, read: male, Sprague-Dawley, rat, plasma, po, 9.45 g/kg, GG (Ge-Gen) group: rats, oral extract 9.45 g/kg, plasma, read-out: AUClast.
The mark [2] stands for this setting: male, Sprague-Dawley, rat, plasma, po, 16.5 g/kg, GQD-GC group (GQD without Gan-Cao): rats, oral 16.5 g/kg, plasma, read-out: AUClast.
[3] abbreviates: male, Sprague-Dawley, rat, plasma, po, 18.9 g/kg, GQD group: rats, oral GQD extract 18.9 g/kg, plasma, read-out: AUClast.
Where [4] appears, read: male, Sprague-Dawley, rat, GG (Ge-Gen) group: rats, oral extract 9.45 g/kg, plasma, read-out: Cmax.
Where [5] appears, read: male, Sprague-Dawley, rat, GG (Ge-Gen) group: rats, oral extract 9.45 g/kg, plasma, read-out: T1/2 (converted).
Setting [6] is: male, Sprague-Dawley, rat, GG (Ge-Gen) group: rats, oral extract 9.45 g/kg, plasma, read-out: Tmax.
[7] abbreviates: male, Sprague-Dawley, rat, GQD group: rats, oral GQD extract 18.9 g/kg, plasma, read-out: Cmax.
Setting [8] is: male, Sprague-Dawley, rat, GQD group: rats, oral GQD extract 18.9 g/kg, plasma, read-out: T1/2 (converted).
The mark [9] stands for this setting: male, Sprague-Dawley, rat, GQD group: rats, oral GQD extract 18.9 g/kg, plasma, read-out: Tmax.
Where [10] appears, read: male, Sprague-Dawley, rat, GQD-GC group (GQD without Gan-Cao): rats, oral 16.5 g/kg, plasma, read-out: Cmax.
The mark [11] stands for this setting: male, Sprague-Dawley, rat, GQD-GC group (GQD without Gan-Cao): rats, oral 16.5 g/kg, plasma, read-out: T1/2 (converted).
Setting [12] is: male, Sprague-Dawley, rat, GQD-GC group (GQD without Gan-Cao): rats, oral 16.5 g/kg, plasma, read-out: Tmax.
The mark [13] stands for this setting: male, Sprague-Dawley, rat, plasma, po, 3.54 g/kg, HQ (Huang-Qin) group: rats, oral extract 3.54 g/kg, plasma, read-out: AUClast.
[14] abbreviates: male, Sprague-Dawley, rat, HQ (Huang-Qin) group: rats, oral extract 3.54 g/kg, plasma, read-out: Cmax.
Where [15] appears, read: male, Sprague-Dawley, rat, HQ (Huang-Qin) group: rats, oral extract 3.54 g/kg, plasma, read-out: T1/2 (converted).
Setting [16] is: male, Sprague-Dawley, rat, HQ (Huang-Qin) group: rats, oral extract 3.54 g/kg, plasma, read-out: Tmax.
The mark [17] stands for this setting: male, Sprague-Dawley, rat, in vivo, po, 3.54 g/kg.
Setting [18] is: male, Sprague-Dawley, rat, in vivo, po, 16.5 g/kg.
Where [19] appears, read: male, Sprague-Dawley, rat, in vivo, po, 18.9 g/kg.

Turning to `O=c1c(-c2ccc(O)cc2)coc2cc(O[C@@H]3O[C@H](CO)[C@@H](O)[C@H](O)[C@H]3O)cc(O)c12` [Compound 4, genistin], the AUC(0-t) is, setting by setting: under setting [1], 51.7 ± 24.2 ng·h/mL; under setting [2], 88.2 ± 24.3 ng·h/mL; under setting [3], 72.6 ± 15.2 ng·h/mL. Besides, the Cmax by setting is: under setting [4], 3.09 ± 1.99 ng/mL; under setting [7], 4.97 ± 1.11 ng/mL; under setting [10], 8.08 ± 3.19 ng/mL. Moreover, the half-life under setting [5] is 6.88 ± 5.23 h, the half-life under setting [8] is 6.93 ± 0.73 h and the half-life under setting [11] is 8.17 ± 2.43 h. Also, the Tmax was found to be 1 ± 2.31 h under setting [6], 1.04 ± 0.78 h under setting [9] and 1.04 ± 0.75 h under setting [12]. For the setting “rats, oral”, the “bioavailability in the GQD group compared with the Ge-Gen group” value was “higher”.
Turning to `COc1c(O)cc(OC2OC(CO)C(O)C(O)C2O)c2c(=O)cc(-c3ccccc3)oc12` (stereo not shown) [Compound 13, wogonin 5-O-glucoside], the AUC(0-t) by setting is: under setting [13], 42.8 ± 6.01 ng·h/mL; under setting [2], 28.2 ± 3.04 ng·h/mL; under setting [3], 53 ± 7.56 ng·h/mL. In addition, the Cmax runs as follows: under setting [7], 1.83 ± 0.14 ng/mL; under setting [10], 5.17 ± 0.26 ng/mL; under setting [14], 1.92 ± 0.13 ng/mL. Besides, the half-life by setting is: under setting [8], 16.1 ± 4.22 h; under setting [11], 13.1 ± 3.96 h; under setting [15], 16.1 ± 5.45 h. In addition, the Tmax is, setting by setting: under setting [9], 2 ± 1.29 h; under setting [12], 2 ± 4.23 h; under setting [16], 0.1 ± 0.07 h.
Regarding `COc1ccc(-c2coc3cc(O[C@@H]4O[C@H](CO)[C@@H](O)[C@H](O)[C@H]4O)ccc3c2=O)cc1` [Compound 39, ononin], the AUC(0-t) is 139 ± 52.4 ng·h/mL under setting [1]; 187 ± 129 ng·h/mL under setting [2]; 500 ± 233 ng·h/mL under setting [3]; more than 300 ng·h/mL (male, Sprague-Dawley, rat, plasma, po, 18.9 g/kg, GQD group: rats, oral GQD 18.9 g/kg (1.5-fold of clinical dosage), plasma, read-out: AUClast). Further, the Cmax reads like this: under setting [4], 41.2 ± 11.4 ng/mL; under setting [7], 34.8 ± 34.2 ng/mL; under setting [10], 24.1 ± 8.38 ng/mL. In addition, the half-life is 1.21 ± 0.24 h under setting [5], 5.73 ± 2.2 h under setting [8] and 2.44 ± 1.45 h under setting [11]. Also, the Tmax runs as follows: under setting [6], 1.12 ± 0.29 h; under setting [9], 0.86 ± 0.15 h; under setting [12], 0.74 ± 0.29 h. The “bioavailability in the GQD group compared with the Ge-Gen group” value (rats, oral) was “higher”.
Take `O=C(/C=C/c1ccc(O[C@@H]2O[C@H](CO)[C@@H](O)[C@H](O)[C@H]2O)cc1)c1ccc(O)cc1O` [Compound 27, isoliquiritin]: the AUC(0-t) is, setting by setting: (male, Sprague-Dawley, rat, in vivo, po, 2.36 g/kg, GC (Gan-Cao) group: rats, oral extract 2.36 g/kg, plasma, read-out: AUClast) 8.46 ± 2.99 ng·h/mL; (male, Sprague-Dawley, rat, in vivo, po, 18.9 g/kg, GQD group: rats, oral GQD extract 18.9 g/kg, plasma, read-out: AUClast) 11.9 ± 2.4 ng·h/mL. For the same molecule, the Cmax (male, Sprague-Dawley, rat, in vivo, GC (Gan-Cao) group: rats, oral extract 2.36 g/kg, plasma, read-out: Cmax) turned out to be 2.17 ± 0.98 ng/mL and the Cmax (male, Sprague-Dawley, rat, in vivo, GQD group: rats, oral GQD extract 18.9 g/kg, plasma, read-out: Cmax) stood at 2.59 ± 2.43 ng/mL. Moreover, the half-life is 0.91 ± 0.08 h (male, Sprague-Dawley, rat, in vivo, GC (Gan-Cao) group: rats, oral extract 2.36 g/kg, plasma, read-out: T1/2 (converted)) and 1.62 ± 0.33 h (male, Sprague-Dawley, rat, in vivo, GQD group: rats, oral GQD extract 18.9 g/kg, plasma, read-out: T1/2 (converted)). The Tmax was 0.4 ± 1.23 h (male, Sprague-Dawley, rat, in vivo, GC (Gan-Cao) group: rats, oral extract 2.36 g/kg, plasma, read-out: Tmax) and 0.49 ± 1.01 h (male, Sprague-Dawley, rat, in vivo, GQD group: rats, oral GQD extract 18.9 g/kg, plasma, read-out: Tmax). The “plasma concentrations, effect of GQD compared with Gan-Cao” value (rats, oral) is reported as “improved”.
Take `O=C(O)[C@H]1O[C@@H](Oc2cc(O)c3c(=O)cc(-c4ccccc4)oc3c2O)[C@H](O)[C@@H](O)[C@@H]1O` [Compound 14, norwogonin 7-O-glucuronide]: the AUC(0-t) under setting [13] is 11000 ± 2530 ng·h/mL; the AUC(0-t) (male, Sprague-Dawley, rat, plasma, po, 3.54 g/kg, Huang-Qin group: rats, oral 3.54 g/kg, plasma, read-out: AUClast) came out at 11000 ± 2530 ng·h/mL; the AUC(0-t) under setting [2] came out at 6030 ± 272 ng·h/mL; the AUC(0-t) under setting [3] turned out to be 5270 ± 987 ng·h/mL. Also, the Cmax under setting [7] turned out to be 379 ± 98.5 ng/mL, the Cmax under setting [10] is 359 ± 34.3 ng/mL and the Cmax under setting [14] came out at 547 ± 73.8 ng/mL. Further, the half-life runs as follows: under setting [8], 4.88 ± 2.87 h; under setting [11], 4.28 ± 1.63 h; under setting [15], 5.1 ± 0.33 h. The Tmax under setting [9] came out at 7.05 ± 1.23 h, the Tmax under setting [12] was determined as 6.17 ± 8.34 h and the Tmax under setting [16] was 7.36 ± 0.08 h. Under “rats, oral, GQD vs Huang-Qin”, the “decrease of Cmax in the GQD group compared with the Huang-Qin group” value is “at least 30%”.
Consider `c1c2c(cc3c1OCO3)-c1cc3ccc4c(c3c[n+]1CC2)OCO4` [Compound 21, coptisine], for which the “increase of AUClast in GQD group compared with the Huang-Lian group” value (male, Sprague-Dawley, rat, in vivo, po) was 49.1%. Further, the Cmax stood at 5.33 ± 1.35 ng/mL under setting [17], 8.39 ± 1.3 ng/mL under setting [18] and 6.56 ± 4.03 ng/mL under setting [19]. Moreover, the Tmax is, setting by setting: under setting [17], 0.68 ± 0.65 h; under setting [18], 0.69 ± 0.76 h; under setting [19], 0.74 ± 0.32 h. The half-life reads like this: under setting [17], 3.83 ± 1.34 h; under setting [18], 3.87 ± 0.27 h; under setting [19], 5.2 ± 1.37 h. Besides, the AUC(0-t) is 73.2 ± 21.2 ng·h/mL (male, Sprague-Dawley, rat, in vivo, po, 3.54 g/kg, AUClast); 167 ± 24.4 ng·h/mL (male, Sprague-Dawley, rat, in vivo, po, 16.5 g/kg, AUClast); more than 100 ng·h/mL (male, Sprague-Dawley, rat, in vivo, po, 18.9 g/kg, AUClast). The AUClast under setting [19] was 109.2 ± 73.23 ng·h/mL.
